Results as given in patent publication US20040110826A1, “Receptor Antagonists” (priority 2001, published 2004).

Each compound was assayed against T1, α2C-adrenoceptor (Homo sapiens, UniProt P18825) (assay: α2c-Adrenoceptor binding test (3H-MK-912 binding, HepG2 cell membrane fraction)). Conditions: 0.5 h, test compound 10^−7 mol/l, read-out: Inhibition ratio (%) against α2c-adrenoceptor binding.
T1 sequence (P18825 1-462): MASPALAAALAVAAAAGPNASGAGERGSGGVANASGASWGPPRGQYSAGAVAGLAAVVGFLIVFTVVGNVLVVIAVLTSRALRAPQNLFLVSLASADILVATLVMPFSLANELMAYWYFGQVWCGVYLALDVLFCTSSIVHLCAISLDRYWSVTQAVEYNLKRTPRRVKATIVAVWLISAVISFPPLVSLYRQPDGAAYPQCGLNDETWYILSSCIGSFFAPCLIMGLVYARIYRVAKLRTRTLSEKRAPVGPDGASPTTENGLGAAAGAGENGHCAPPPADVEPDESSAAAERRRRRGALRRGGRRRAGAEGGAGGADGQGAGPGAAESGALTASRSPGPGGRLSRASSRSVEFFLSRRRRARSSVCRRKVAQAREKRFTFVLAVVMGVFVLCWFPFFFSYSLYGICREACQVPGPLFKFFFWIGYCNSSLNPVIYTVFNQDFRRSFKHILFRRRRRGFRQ
Design: the membrane fraction of the cultured cells was used; endogenous in cells; host or cells: HepG2 (human hepatoma) cell membrane fraction
Protocol: Adrenoceptor Binding Activity (α2c-Adrenoceptor Binding Test)
This test was carried out according to the method of Schaak et al. [Journal of Pharmacological Experimental Therapeutics, Vol. 281, p. 983 (1997)] as slightly modified.
Human hepatocyto HepG2 cells were cultured in DMEM medium (GIBCO BRL) containing 10% fetal bovine serum (FBS), 100 units/ml penicillin and 100 μg/ml streptomycin, and the membrane fraction of the cultured cells was used. The cultured cells were washed with phosphate-buffered saline (PBS), then scraped with a scraper and recovered by centrifugation at 800 rpm for 5 minutes. To the cells was added a buffer [50 mmol/l tris(hydroxymethyl)aminomethane: Tris, 5 mmol/l ethylenediamine tetraacetic acid (EDTA), pH 7.5], and the cells were suspended using Polytron Homogenizer (Kinematica), followed by centrifugation at 39,000×g for 10 minutes. The precipitate thus obtained was re-suspended in the same amount of the buffer, and the cell suspension was obtained by centrifugation and removing the supernatant in a similar manner.
To 100 μl of the cell suspension were added 80 μl of tritium-labeled MK-912 (methyl-^3H: 2.89 TBq/mmol; New England Nuclear) (final concentration: 1.0 nmol/l) and 20 μl of a test compound. The mixture was allowed to stand at 25° C. for 30 minutes and then rapidly filtered by suction through a glass fiber filter treated with 0.3% polyethyleneimine (GF/C; Whatman). The filter was immediately washed 3 times with 200 μl of an ice-cooled buffer and transferred to a vial. A liquid scintillator (ULTIMA GOLD; Packard) was added thereto and the radioactivity was measured with a liquid scintillation counter (Packard).
The inhibition ratio of the test compound against the α2C-adrenoceptor binding (^3H-MK-912 binding) was calculated using the following equation.
Inhibition ratio (%)={1−(amount of the binding in the presence of the test compound−amount of the nonspecific binding)/(amount of the total binding−amount of the nonspecific binding)}×100
(Note) Amount of the total binding means the amount of radioactivity of ^3H-MK-912 bound in the absence of the test compound. Amount of the nonspecific binding means the amount of radioactivity of ^3H-MK-912 bound in the presence of 10 μmol/l Yohimbine (Sigma). Amount of the binding in the presence of the test compound means the amount of radioactivity of ^3H-MK-912 bound in the presence of varied concentrations of the test compound.

SMILES	inhibition at 0.1 µM [%]
Nc1ncc(CNCC2COc3ccccc3O2)c2nc(-c3ccco3)nn12 (stereo not shown) [Compound 213, 5-Amino-8-(1,4-benzodioxan-2-ylmethylaminomethyl)-2-(2-furyl)[1,2,4]triazolo[1,5-c]pyrimidine]	96
Nc1ncc(CN2CCC(c3ccccc3)CC2)c2nc(-c3ccco3)nn12 [Compound 203, 5-Amino-2-(2-furyl)-8-(4-phenylpiperidinomethyl)[1,2,4]triazolo[1,5-c]pyrimidine]	83
Nc1ncc(CN2CCN(c3ccccc3)CC2)c2nc(-c3cccnc3)nn12 [Compound 144, 5-Amino-8-(4-phenylpiperazin-1-ylmethyl)-2-(3-pyridyl)[1,2,4]triazolo[1,5-c]pyrimidine]	75
N#Cc1ccccc1N1CCN(Cc2cnc(N)n3nc(-c4ccco4)nc23)CC1 [Compound 59, 5-Amino-8-[4-(2-cyanophenyl)piperazin-1-ylmethyl]-2-(2-furyl)[1,2,4]triazolo[1,5-c]pyrimidine]	65
Nc1ncc(CN2CCN(c3ccccc3)CC2)c2nc(C3CCCCC3)nn12 [Compound 166, 5-Amino-2-cyclohexyl-8-(4-phenylpiperazin-1-ylmethyl)[1,2,4]triazolo[1,5-c]pyrimidine]	84
Cc1ccccc1N1CCN(Cc2cnc(N)n3nc(-c4ccco4)nc23)CC1 [Compound 55, 5-Amino-2-(2-furyl)-8-[4-(2-methylphenyl)piperazin-1-ylmethyl][1,2,4]triazolo[1,5-c]pyrimidine]	92
Nc1ncc(CN2CCN(c3ncccn3)CC2)c2nc(-c3ccco3)nn12 [Compound 23, 5-Amino-2-(2-furyl)-8-[4-(2-pyrimidinyl)piperazin-1-ylmethyl][1,2,4]triazolo[1,5-c]pyrimidine]	70
Nc1ncc(CN2CCN(c3ccccc3F)CC2)c2nc(-c3ccco3)nn12 [Compound 45, 5-Amino-8-[4-(2-fluorophenyl)piperazin-1-ylmethyl]-2-(2-furyl)[1,2,4]triazolo[1,5-c]pyrimidine]	88
Nc1ncc(CN2CCN(c3ccccc3)CC2)c2nc(-c3ccco3)nn12 [Compound 2, 5-Amino-2-(2-furyl)-8-(4-phenylpiperazin-1-ylmethyl)[1,2,4]triazolo[1,5-c]pyrimidine]	80
C1=C(CN2CCc3ccccc3C2)c2nc(-c3ccco3)nn2C2=NCCN12 [Compound 491, 2-(2-Furyl)-4-(1,2,3,4-tetrahydroisoquinolin-2-ylmethyl)-6,7-dihydro-1,3,5a,8,8b-pentaaza-as-indacene]	74
Nc1ncc(CN2CCN(c3ccccc3Cl)CC2)c2nc(-c3ccco3)nn12 [Compound 49, 5-Amino-8-[4-(2-chlorophenyl)piperazin-1-ylmethyl]-2-(2-furyl)[1,2,4]triazolo[1,5-c]pyrimidine]	91
CN(Cc1ccccc1)c1ncc(CN2CCN(c3ccccc3F)CC2)c2nc(-c3ccco3)nn12 [Compound 370, 8-[4-(2-Fluorophenyl)piperazin-1-ylmethyl]-2-(2-furyl)-5-(N-methylbenzylamino)[1,2,4]triazolo[1,5-c]pyrimidine]	91
O=c1[nH]cc(CN2CCN(c3ccccc3)CC2)c2nc(-c3ccco3)nn12 [Compound 483, 2-(2-Furyl)-8-(4-phenylpiperazin-1-ylmethyl)-6H-[1,2,4]triazolo[1,5-c]pyrimidin-5-one]	60

Other lines, results leading:

inhibition at 0.1 µM [%]	SMILES
68	COCCNc1ncc(CN2CCc3ccccc3C2)c2nc(-c3ccco3)nn12 [Compound 127, 2-(2-Furyl)-5-(2-methoxyethylamino)-8-(1,2,3,4-tetrahydroisoquinolin-2-ylmethyl)[1,2,4]triazolo[1,5-c]pyrimidine]
86	COc1ccc2c(c1)CCN(Cc1cnc(N)n3nc(-c4ccco4)nc13)C2 [Compound 89, 5-Amino-2-(2-furyl)-8-(6-methoxy-1,2,3,4-tetrahydroisoquinolin-2-ylmethyl)[1,2,4]triazolo[1,5-c]pyrimidine]
87	Cc1ccc2c(c1)CN(Cc1cnc(N)n3nc(-c4ccco4)nc13)CC2 [Compound 195, 5-Amino-2-(2-furyl)-8-(7-methyl-1,2,3,4-tetrahydroisoquinolin-2-ylmethyl)[1,2,4]triazolo[1,5-c]pyrimidine]
58	CSc1ncc(CN2CCc3ccccc3C2)c2nc(-c3ccco3)nn12 [Compound 452, 2-(2-Furyl)-5-methylthio-8-(1,2,3,4-tetrahydroisoquinolin-2-ylmethyl)[1,2,4]triazolo[1,5-c]pyrimidine]
96	Nc1ncc(CN2CCc3ccccc3C2)c2nc(-c3ccco3)nn12 [Compound 19, 5-Amino-2-(2-furyl)-8-(1,2,3,4-tetrahydroisoquinolin-2-ylmethyl)[1,2,4]triazolo[1,5-c]pyrimidine]
72	COc1cc2c(cc1OC)CN(Cc1cnc(NCCCO)n3nc(-c4ccco4)nc13)CC2 [Compound 182, 8-(6,7-Dimethoxy-1,2,3,4-tetrahydroisoquinolin-2-ylmethyl)-2-(2-furyl)-5-(3-hydroxypropylamino)[1,2,4]triazolo[1,5-c]pyrimidine]
